Results taken from US20080139564A1, “SUBSTITUTED PHENYL PROPYL AMINES AS HISTAMINE H3 RECEPTOR AND SEROTONIN TRANSPORTER MODULATORS” (priority 2006, published 2008).
Like-named read-outs stand apart in the source and are kept apart here.

Tests used:
human H3 receptor [1] = molecular target: T1, human H3 receptor (Homo sapiens, UniProt Q9Y5N1); assay: Cyclic AMP accumulation (β-galactosidase reporter in SK-N-MC cells); assay type: cell-based
T1 construct: expressed in transfected cells
Experimental: Sublines of SK-N-MC cells were created that expressed a reporter construct and the human H3 receptor. The reporter gene (β-galactosidase) is under the control of multiple cyclic AMP responsive elements. In 96-well plates, histamine was added directly to the cell media followed 5 min later by an addition of forskolin (5 μM final concentration). When appropriate, antagonists were added 10 min prior to agonist addition. After a 6-h incubation at 37° C., the media was aspirated and the cells washed with 200 μL of phosphate-buffered saline followed by a second aspiration. Cells were lysed with 25 μL 0.1× assay buffer (10 mM Na-phosphate, pH 8, 0.2 mM MgSO4, 0.01 mM MnCl2) and incubated at rt for 10 min. Cells were then incubated for 10 min with 100 μL of 1× assay buffer containing 0.5% Triton and 40 mM β-mercaptoethanol. Color was developed using 25 μL of 1 mg/mL substrate solution (chlorophenolred β-D galactopyranoside; Roche Molecular Biochemicals, Indianapolis, Ind.). Color was quantitated on a microplate reader at absorbance 570 nm. The pA2 values were calculated by Schild regression analysis of the pEC50 values.

human H3 receptor [2] = molecular target: T1, human H3 receptor; assay: H3 receptor binding (N-[3H]-α-methylhistamine displacement, SK-N-MC cell membranes); conditions: 0.8 nM N-[3H]-α-methylhistamine, 60 min at 25° C.
Outline: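 Membranes from SK-N-MC cells stably expressing cloned human H3 receptor, in 50 mM Tris/5 mM EDTA pH 7.4, incubated with 0.8 nM N-[³H]-α-methylhistamine ± compound for 60 min at 25° C., then filtered. Nonspecific binding defined with 10 μM histamine.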

human SERT = molecular target: T2, human SERT (Homo sapiens, UniProt P31645); assay: Human SERT binding (3H-citalopram displacement, HEK293 membranes); conditions: 3H-citalopram 3.1 nM, rt for 1 h
T2 construct: expressed in transfected cells; host or cells: HEK293
T2 sequence (P31645 whole entry): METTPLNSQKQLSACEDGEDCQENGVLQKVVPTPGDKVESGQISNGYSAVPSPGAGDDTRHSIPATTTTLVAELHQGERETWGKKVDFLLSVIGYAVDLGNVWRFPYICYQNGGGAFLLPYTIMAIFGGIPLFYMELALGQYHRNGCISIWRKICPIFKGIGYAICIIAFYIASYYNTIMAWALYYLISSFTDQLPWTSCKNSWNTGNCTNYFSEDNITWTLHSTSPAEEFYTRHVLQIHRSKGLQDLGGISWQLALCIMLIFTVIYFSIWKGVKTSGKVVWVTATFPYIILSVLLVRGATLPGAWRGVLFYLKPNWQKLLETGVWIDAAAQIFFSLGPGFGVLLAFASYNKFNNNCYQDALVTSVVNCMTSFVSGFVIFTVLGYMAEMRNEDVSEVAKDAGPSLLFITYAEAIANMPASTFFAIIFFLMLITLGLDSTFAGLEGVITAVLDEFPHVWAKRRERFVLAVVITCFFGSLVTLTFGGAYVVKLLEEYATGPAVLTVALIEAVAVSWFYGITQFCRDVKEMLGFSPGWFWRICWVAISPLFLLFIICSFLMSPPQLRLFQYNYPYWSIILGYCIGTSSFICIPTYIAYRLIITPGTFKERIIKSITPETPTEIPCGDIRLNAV
Outline: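 HEK293 membranes expressing human SERT incubated with ^3H-citalopram (3.1 nM) for 1 h at rt in 50 mM Tris, 120 mM NaCl, 5 mM KCl, pH 7.4. Nonspecific binding defined with 10 μM fluoxetine. Ki derived from bound radioactivity using the ^3H-citalopram Kd.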

Rat SERT = molecular target: T3, Rat SERT (Rattus norvegicus, UniProt P31652); assay: Rat brain SERT binding ([3H]-Citalopram displacement, rat brain membranes); conditions: 0.6 nM [3H]-Citalopram, 60 min at 25° C.
T3 construct: A rat brain without cerebellum (Zivic Laboratories, Inc.—Pittsburgh, Pa.) was homogenized; tissue Zivic Laboratories, Inc; host or cells: rat brain without cerebellum
T3 sequence (P31652 whole entry): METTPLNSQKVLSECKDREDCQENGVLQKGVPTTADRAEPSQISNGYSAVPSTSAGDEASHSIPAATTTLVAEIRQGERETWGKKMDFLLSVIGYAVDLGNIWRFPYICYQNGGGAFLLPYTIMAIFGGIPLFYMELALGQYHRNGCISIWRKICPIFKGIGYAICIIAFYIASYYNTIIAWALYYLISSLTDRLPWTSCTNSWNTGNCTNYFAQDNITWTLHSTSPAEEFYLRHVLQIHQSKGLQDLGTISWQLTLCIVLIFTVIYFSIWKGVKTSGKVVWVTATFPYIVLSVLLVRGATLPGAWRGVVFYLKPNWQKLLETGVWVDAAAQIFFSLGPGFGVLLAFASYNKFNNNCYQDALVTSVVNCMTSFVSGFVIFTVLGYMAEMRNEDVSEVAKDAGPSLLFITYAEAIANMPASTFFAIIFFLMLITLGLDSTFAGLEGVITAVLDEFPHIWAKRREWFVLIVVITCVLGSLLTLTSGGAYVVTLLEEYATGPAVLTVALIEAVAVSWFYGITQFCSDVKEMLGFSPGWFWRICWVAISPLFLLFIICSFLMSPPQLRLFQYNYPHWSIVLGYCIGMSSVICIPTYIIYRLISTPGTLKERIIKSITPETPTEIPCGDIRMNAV
Outline: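 Membranes prepared from rat brain minus cerebellum in Tris pH 8/NaCl/KCl were incubated with 0.6 nM [3H]-citalopram and test compound for 60 min at 25° C. Bound ligand was separated by filtration. Nonspecific binding defined with 100 μM fluoxetine.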

T1 sequence (Q9Y5N1 whole entry): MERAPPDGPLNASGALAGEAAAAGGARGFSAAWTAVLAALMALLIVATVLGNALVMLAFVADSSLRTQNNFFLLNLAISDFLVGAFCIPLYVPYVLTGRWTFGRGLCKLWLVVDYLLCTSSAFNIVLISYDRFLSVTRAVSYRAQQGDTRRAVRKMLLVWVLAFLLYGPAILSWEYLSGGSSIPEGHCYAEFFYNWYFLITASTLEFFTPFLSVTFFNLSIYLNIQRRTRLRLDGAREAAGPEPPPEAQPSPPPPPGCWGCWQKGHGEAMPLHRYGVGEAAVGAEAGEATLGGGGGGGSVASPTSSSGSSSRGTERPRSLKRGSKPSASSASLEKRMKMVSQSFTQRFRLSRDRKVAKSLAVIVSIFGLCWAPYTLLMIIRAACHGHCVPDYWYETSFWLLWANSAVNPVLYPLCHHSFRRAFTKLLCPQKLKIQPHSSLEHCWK

Kb (human H3 receptor [1]; read-out: pA2 (converted)) [nM]	Ki (human H3 receptor [2]) [nM]	Ki (human SERT) [nM]	Ki (Rat SERT) [nM]	Structure (SMILES)	Kb (human H3 receptor [1]) [nM]
3.98	3	151	15	CN(C)CCC(Nc1ccccc1)c1ccc(OCCCN2CCCCC2)cc1 (centres unmarked) [Example 66, N^3,N^3-Dimethyl-N^1-phenyl-1-[4-(3-piperidin-1-yl-propoxy)-phenyl]-propane-1,3-diamine]	
0.631	0.6	53	4	CN(C)CCC(Sc1ccccc1)c1ccc(OCCCN2CCCCC2)cc1 (centres unmarked) [Example 67, Dimethyl-{3-phenylsulfanyl-3-[4-(3-piperidin-1-yl-propoxy)phenyl]-propyl}-amine]	
7.94	8	1	5	NCCC(Oc1ccc(C(F)(F)F)cc1)c1ccc(OCCCN2CCCCC2)cc1 (centres unmarked) [Example 69, 3-[4-(3-Piperidin-1-yl-propoxy)-phenyl]-3-(4-trifluoromethylphenoxy)-propylamine]	
10.5	2	0.8	3	CNCCC(Oc1ccc(Cl)c(Cl)c1)c1ccc(OCCCN2CCCCC2)cc1 (centres unmarked) [Example 71, {3-(3,4-Dichloro-phenoxy)-3-[4-(3-piperidin-1-yl-propoxy)-phenyl]-propyl}-methyl-amine]	

Structure (SMILES)	Kb (human H3 receptor [1]; read-out: pA2 (converted)) [nM]	Ki (human H3 receptor [2]) [nM]	Ki (human SERT) [nM]	Ki (Rat SERT) [nM]	Kb (human H3 receptor [1]) [nM]
CNCCC(Oc1ccc(C(F)(F)F)cc1)c1ccc(OCCCN2CCCCC2)cc1 (centres unmarked) [Example 70, Methyl-[3-[4-(3-piperidin-1-yl-propoxy)-phenyl]-3-(4-trifluoromethyl-phenoxy)-propyl]-amine]		1	2	3	3.98
